From PMC8364686, “Safety, tolerability, pharmacokinetics and pharmacodynamics of single oral doses of BI 187004, an inhibitor of 11beta-hydroxysteroid dehydrogenase-1, in healthy male volunteers with overweight or obesity” (Clinical Diabetes and Endocrinology, 2021)

Experiment: Plasma pharmacokinetics of BI 187004 after single oral doses (LC–MS/MS)
Conditions: male, human, plasma, po
[1] = 10 mg, Plasma concentration Mean, 10 mg single oral
[2] = 10 mg, Plasma concentration Median, 10 mg single oral
[3] = 10 mg, Plasma concentration gMean, 10 mg single oral

Method: This was a randomized, double-blind, placebo-controlled, single rising dose study conducted at a single center in Germany. […] Follow-up on an ambulatory basis was performed between 11 and 15 days after study drug administration. […] At the time of use the oral solution for dosing was prepared using the PFOS and a co-supplied aqueous solvent containing HP-beta-cyclodextrin 100 mg/mL. The lowest dose level solutions were prepared by further dilution of the lower concentration solution with additional solvent.
For each accepted run, the acceptance criteria for the calibration standards and quality controls were met.

N#Cc1ccc2c(c1)[C@H]1CCCN(C(=O)c3ccc4[nH]cnc4c3)[C@H]1C2 [BI 187004]
concentration at 24 h [1]: 76.9 nM
concentration at 36 h [1]: 30.2 nM
concentration at 48 h [1]: 22.8 nM
concentration at 72 h [1]: 10.7 nM
concentration at 96 h [1]: 5.72 nM
concentration at 0.5 h (10 mg, Plasma concentration Median, 10 mg single oral, 0.5 h): 363 nM
concentration at 1 h (10 mg, Plasma concentration Median, 10 mg single oral, 1 h): 413 nM
concentration at 1.5 h (10 mg, Plasma concentration Median, 10 mg single oral, 1.5 h): 435 nM
concentration at 2 h (10 mg, Plasma concentration Median, 10 mg single oral, 2 h): 396 nM
concentration at 2.5 h (10 mg, Plasma concentration Median, 10 mg single oral, 2.5 h): 381 nM
concentration at 3 h (10 mg, Plasma concentration Median, 10 mg single oral, 3 h): 334 nM
concentration at 4 h (10 mg, Plasma concentration Median, 10 mg single oral, 4 h): 368 nM
concentration at 5 h (10 mg, Plasma concentration Median, 10 mg single oral, 5 h): 272 nM
concentration at 6 h (10 mg, Plasma concentration Median, 10 mg single oral, 6 h): 243 nM
concentration at 8 h (10 mg, Plasma concentration Median, 10 mg single oral, 8 h): 217 nM
concentration at 10 h [2]: 179 nM
concentration at 12 h [2]: 147 nM
concentration at 24 h [2]: 80 nM
concentration at 36 h [2]: 29.6 nM
concentration at 48 h [2]: 22.4 nM
concentration at 72 h [2]: 9.36 nM
concentration at 96 h [2]: 5.09 nM
concentration at 0.5 h (10 mg, Plasma concentration gMean, 10 mg single oral, 0.5 h): 279 nM
concentration at 1 h (10 mg, Plasma concentration gMean, 10 mg single oral, 1 h): 426 nM
concentration at 1.5 h (10 mg, Plasma concentration gMean, 10 mg single oral, 1.5 h): 435 nM
concentration at 2 h (10 mg, Plasma concentration gMean, 10 mg single oral, 2 h): 380 nM
concentration at 2.5 h (10 mg, Plasma concentration gMean, 10 mg single oral, 2.5 h): 372 nM
concentration at 3 h (10 mg, Plasma concentration gMean, 10 mg single oral, 3 h): 336 nM
concentration at 4 h (10 mg, Plasma concentration gMean, 10 mg single oral, 4 h): 340 nM
concentration at 5 h (10 mg, Plasma concentration gMean, 10 mg single oral, 5 h): 270 nM
concentration at 6 h (10 mg, Plasma concentration gMean, 10 mg single oral, 6 h): 254 nM
concentration at 8 h (10 mg, Plasma concentration gMean, 10 mg single oral, 8 h): 208 nM
concentration at 10 h [3]: 174 nM
concentration at 12 h [3]: 140 nM
concentration at 24 h [3]: 71.3 nM
concentration at 36 h [3]: 26.3 nM
concentration at 48 h [3]: 20.5 nM
concentration at 72 h [3]: 10.2 nM
concentration at 96 h [3]: 5.48 nM
concentration at 1 h (10 mg, Plasma concentration, individual subjects, 10 mg single oral, planned time 1 h): 519 nM
concentration at 1.5 h (10 mg, Plasma concentration, individual subjects, 10 mg single oral, planned time 1.5 h): 537 nM
concentration at 2 h (10 mg, Plasma concentration, individual subjects, 10 mg single oral, planned time 2 h): 437 nM
concentration at 2.5 h (10 mg, Plasma concentration, individual subjects, 10 mg single oral, planned time 2.5 h): 442 nM
concentration at 3 h (10 mg, Plasma concentration, individual subjects, 10 mg single oral, planned time 3 h): 405 nM
concentration at 4 h (10 mg, Plasma concentration, individual subjects, 10 mg single oral, planned time 4 h): 412 nM
concentration at 5 h (10 mg, Plasma concentration, individual subjects, 10 mg single oral, planned time 5 h): 352 nM
concentration at 6 h (10 mg, Plasma concentration, individual subjects, 10 mg single oral, planned time 6 h): 353 nM
concentration at 8 h (10 mg, Plasma concentration, individual subjects, 10 mg single oral, planned time 8 h): 241 nM
AUC(0-inf) (20 mg): 12.4 µM·h
AUC(0-t) (20 mg): 9.45 µM·h
Cmax (20 mg): 1030 nM
Tmax (20 mg): 1.38 h
Vd/F (20 mg): 144 L
half-life (20 mg): 21.2 h
concentration at 0.5 h (20 mg, BI 187004 plasma concentrations, 20 mg single oral, planned time 0.5 h, Max): 1050 nM
concentration at 0.5 h (20 mg, BI 187004 plasma concentrations, 20 mg single oral, planned time 0.5 h, Mean): 431 nM
concentration at 0.5 h (20 mg, BI 187004 plasma concentrations, 20 mg single oral, planned time 0.5 h, Median): 215 nM
concentration at 0.5 h (20 mg, BI 187004 plasma concentrations, 20 mg single oral, planned time 0.5 h, Min): 34.3 nM
concentration at 0.5 h (20 mg, BI 187004 plasma concentrations, 20 mg single oral, planned time 0.5 h, gMean): 211 nM
concentration at 1 h (20 mg, BI 187004 plasma concentrations, 20 mg single oral, planned time 1 h, Max): 1130 nM
concentration at 1 h (20 mg, BI 187004 plasma concentrations, 20 mg single oral, planned time 1 h, Mean): 885 nM
concentration at 1 h (20 mg, BI 187004 plasma concentrations, 20 mg single oral, planned time 1 h, Median): 1030 nM
concentration at 1 h (20 mg, BI 187004 plasma concentrations, 20 mg single oral, planned time 1 h, Min): 236 nM
concentration at 1 h (20 mg, BI 187004 plasma concentrations, 20 mg single oral, planned time 1 h, gMean): 788 nM
concentration at 1.5 h (20 mg, BI 187004 plasma concentrations, 20 mg single oral, planned time 1.5 h, Max): 1210 nM
concentration at 1.5 h (20 mg, BI 187004 plasma concentrations, 20 mg single oral, planned time 1.5 h, Mean): 969 nM
concentration at 1.5 h (20 mg, BI 187004 plasma concentrations, 20 mg single oral, planned time 1.5 h, Median): 944 nM
concentration at 1.5 h (20 mg, BI 187004 plasma concentrations, 20 mg single oral, planned time 1.5 h, Min): 824 nM
concentration at 1.5 h (20 mg, BI 187004 plasma concentrations, 20 mg single oral, planned time 1.5 h, gMean): 960 nM
concentration at 1.5 h (20 mg, BI 187004 plasma concentrations, 20 mg single oral, planned time 1.5 h, individual subjects): 1210 nM
concentration at 2 h (20 mg, BI 187004 plasma concentrations, 20 mg single oral, planned time 2 h, Max): 1100 nM
concentration at 2 h (20 mg, BI 187004 plasma concentrations, 20 mg single oral, planned time 2 h, Mean): 877 nM
concentration at 2 h (20 mg, BI 187004 plasma concentrations, 20 mg single oral, planned time 2 h, Median): 890 nM
concentration at 2 h (20 mg, BI 187004 plasma concentrations, 20 mg single oral, planned time 2 h, Min): 630 nM
concentration at 2 h (20 mg, BI 187004 plasma concentrations, 20 mg single oral, planned time 2 h, gMean): 863 nM
concentration at 2 h (20 mg, BI 187004 plasma concentrations, 20 mg single oral, planned time 2 h, individual subjects): 1100 nM
concentration at 2.5 h (20 mg, BI 187004 plasma concentrations, 20 mg single oral, planned time 2.5 h, Max): 1060 nM
concentration at 2.5 h (20 mg, BI 187004 plasma concentrations, 20 mg single oral, planned time 2.5 h, Mean): 860 nM
concentration at 2.5 h (20 mg, BI 187004 plasma concentrations, 20 mg single oral, planned time 2.5 h, Median): 866 nM
concentration at 2.5 h (20 mg, BI 187004 plasma concentrations, 20 mg single oral, planned time 2.5 h, Min): 619 nM
concentration at 2.5 h (20 mg, BI 187004 plasma concentrations, 20 mg single oral, planned time 2.5 h, gMean): 843 nM
concentration at 2.5 h (20 mg, BI 187004 plasma concentrations, 20 mg single oral, planned time 2.5 h, individual subjects): 1060 nM
concentration at 3 h (20 mg, BI 187004 plasma concentrations, 20 mg single oral, planned time 3 h, Max): 945 nM
concentration at 3 h (20 mg, BI 187004 plasma concentrations, 20 mg single oral, planned time 3 h, Mean): 760 nM
concentration at 3 h (20 mg, BI 187004 plasma concentrations, 20 mg single oral, planned time 3 h, Median): 770 nM
concentration at 3 h (20 mg, BI 187004 plasma concentrations, 20 mg single oral, planned time 3 h, Min): 586 nM
concentration at 3 h (20 mg, BI 187004 plasma concentrations, 20 mg single oral, planned time 3 h, gMean): 746 nM
concentration at 3 h (20 mg, BI 187004 plasma concentrations, 20 mg single oral, planned time 3 h, individual subjects): 945 nM
concentration at 4 h (20 mg, BI 187004 plasma concentrations, 20 mg single oral, planned time 4 h, Max): 896 nM
concentration at 4 h (20 mg, BI 187004 plasma concentrations, 20 mg single oral, planned time 4 h, Mean): 724 nM
concentration at 4 h (20 mg, BI 187004 plasma concentrations, 20 mg single oral, planned time 4 h, Median): 748 nM
concentration at 4 h (20 mg, BI 187004 plasma concentrations, 20 mg single oral, planned time 4 h, Min): 531 nM
concentration at 4 h (20 mg, BI 187004 plasma concentrations, 20 mg single oral, planned time 4 h, gMean): 707 nM
concentration at 4 h (20 mg, BI 187004 plasma concentrations, 20 mg single oral, planned time 4 h, individual subjects): 896 nM
concentration at 5 h (20 mg, BI 187004 plasma concentrations, 20 mg single oral, planned time 5 h, Max): 883 nM
concentration at 5 h (20 mg, BI 187004 plasma concentrations, 20 mg single oral, planned time 5 h, Mean): 653 nM
concentration at 5 h (20 mg, BI 187004 plasma concentrations, 20 mg single oral, planned time 5 h, Median): 644 nM
concentration at 5 h (20 mg, BI 187004 plasma concentrations, 20 mg single oral, planned time 5 h, Min): 463 nM
concentration at 5 h (20 mg, BI 187004 plasma concentrations, 20 mg single oral, planned time 5 h, gMean): 634 nM
concentration at 5 h (20 mg, BI 187004 plasma concentrations, 20 mg single oral, planned time 5 h, individual subjects): 773 nM
concentration at 6 h (20 mg, BI 187004 plasma concentrations, 20 mg single oral, planned time 6 h, Max): 847 nM
concentration at 6 h (20 mg, BI 187004 plasma concentrations, 20 mg single oral, planned time 6 h, Mean): 566 nM
concentration at 6 h (20 mg, BI 187004 plasma concentrations, 20 mg single oral, planned time 6 h, Median): 529 nM
concentration at 6 h (20 mg, BI 187004 plasma concentrations, 20 mg single oral, planned time 6 h, Min): 420 nM
